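Protocol summary: plate cells (96-well), add compound at 5 concentrations, incubate 48 h, interpolate endpoints linearly. The concentration for 50% growth inhibition is given as GI50.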 Activity calls are given as the source filed them. No stated cut-off is given here; in the data, active = GI50 up to about 1.1 µM and inactive = higher.
What was measured:
Test in all cases: growth of human tumour cells (NCI), 48 h
SK-OV-3 = system: SK-OV-3
MCF7 = system: MCF7
SK-MEL-28 = system: SK-MEL-28
SNB-75 = system: SNB-75
CCRF-CEM = system: CCRF-CEM
BT-549 = system: BT-549
NCI-H23 = system: NCI-H23
IGROV-1 = system: IGROV-1
MDA-MB-435 = system: MDA-MB-435
OVCAR-8 = system: OVCAR-8
MDA-MB-231 = system: MDA-MB-231
UO-31 = system: UO-31
SNB-19 = system: SNB-19
RPMI-8226 = system: RPMI-8226
T47D = system: T47D
NCI-H460 = system: NCI-H460
EKVX = system: EKVX
LOX IMVI = system: LOX IMVI
PC-3 = system: PC-3
SR = system: SR

Compound | GI50 (SK-OV-3) | GI50 (MCF7) | GI50 (SK-MEL-28) | GI50 (SNB-75) | GI50 (CCRF-CEM) | GI50 (BT-549) | GI50 (NCI-H23) | GI50 (IGROV-1) | GI50 (MDA-MB-435) | GI50 (OVCAR-8) | GI50 (MDA-MB-231) | GI50 (UO-31) | GI50 (SNB-19) | GI50 (RPMI-8226) | GI50 (T47D) | GI50 (NCI-H460) | GI50 (EKVX) | GI50 (LOX IMVI) | GI50 (PC-3) | GI50 (SR)
CC(=O)OCC1OC(n2c(N)c(C#N)c(-c3ccc(C)cc3)c(C#N)c2=S)C(OC(C)=O)C(OC(C)=O)C1OC(C)=O (stereo unspecified) | 24.5 µM (inactive) | 20.1 µM (inactive) | 38.7 µM (inactive) | 16 µM (inactive) | 35.2 µM (inactive) | 37.3 µM (inactive) | 21.1 µM (inactive) | 20.3 µM (inactive) | 21.2 µM (inactive) | 15.2 µM (inactive) | 44.9 µM (inactive) | 17.9 µM (inactive) | 18.8 µM (inactive) | 29.2 µM (inactive) | 17.5 µM (inactive) | 31.4 µM (inactive) | 18.3 µM (inactive) | 32.7 µM (inactive) | 31.8 µM (inactive) | –
CC(=O)N1c2ccccc2C(C)(C)OC1C(Cl)(Cl)Cl (stereo unspecified) | 37.8 µM (inactive) | 23.6 µM (inactive) | 47.6 µM (inactive) | 17.1 µM (inactive) | 27.7 µM (inactive) | 35.8 µM (inactive) | 34.1 µM (inactive) | 41.8 µM (inactive) | 25.5 µM (inactive) | 39.5 µM (inactive) | 39.6 µM (inactive) | 58.2 µM (inactive) | 44.7 µM (inactive) | 14.1 µM (inactive) | 84.7 µM (inactive) | 33.3 µM (inactive) | 26.2 µM (inactive) | – | 31.8 µM (inactive) | –
O=C1CC(O)c2c1csc2Br (stereo unspecified) | 53.8 µM (inactive) | 19.8 µM (inactive) | 17.8 µM (inactive) | 26.4 µM (inactive) | 25.2 µM (inactive) | 23.2 µM (inactive) | 21.9 µM (inactive) | 13.5 µM (inactive) | 18.8 µM (inactive) | 23.3 µM (inactive) | 23.8 µM (inactive) | 19.8 µM (inactive) | 34.2 µM (inactive) | 14.3 µM (inactive) | 23.7 µM (inactive) | 25.7 µM (inactive) | 48.2 µM (inactive) | 16.4 µM (inactive) | 32.4 µM (inactive) | –
CCCCCCc1cc2cc(C(=O)Nc3ccccc3F)c(=N)oc2cc1O | 12.5 µM (inactive) | 3.85 µM (inactive) | 7.69 µM (inactive) | – | 4.76 µM (inactive) | 5.36 µM (inactive) | 3.18 µM (inactive) | 3.34 µM (inactive) | 3.39 µM (inactive) | 2.89 µM (inactive) | – | 4.27 µM (inactive) | 8.83 µM (inactive) | 3.66 µM (inactive) | 3.51 µM (inactive) | 7.62 µM (inactive) | 10.4 µM (inactive) | 5.24 µM (inactive) | 11.2 µM (inactive) | 2.83 µM (inactive)
CCN(CC)CCNC(=O)c1cc2cc(NC(=O)c3cc4cc(NC(=O)c5cc6cc([N+](=O)[O-])ccc6[nH]5)ccc4[nH]3)ccc2[nH]1 | > 100 µM (inactive) | – | > 100 µM (inactive) | > 100 µM (inactive) | 10.6 µM (inactive) | > 100 µM (inactive) | > 100 µM (inactive) | > 100 µM (inactive) | > 100 µM (inactive) | > 100 µM (inactive) | > 100 µM (inactive) | > 100 µM (inactive) | > 100 µM (inactive) | < 0.01 µM (active) | > 100 µM (inactive) | > 100 µM (inactive) | > 100 µM (inactive) | > 100 µM (inactive) | > 100 µM (inactive) | < 0.01 µM (active)
O=c1cc(CBr)c2ccc(O)cc2o1 | 97.7 µM (inactive) | 69.7 µM (inactive) | 80.4 µM (inactive) | > 100 µM (inactive) | 54.3 µM (inactive) | 35.1 µM (inactive) | 47.1 µM (inactive) | 81.8 µM (inactive) | 39 µM (inactive) | 70.6 µM (inactive) | > 100 µM (inactive) | 58.5 µM (inactive) | 84.3 µM (inactive) | 38.5 µM (inactive) | – | 63.5 µM (inactive) | 21.7 µM (inactive) | > 100 µM (inactive) | 62.4 µM (inactive) | 63 µM (inactive)
CC1=C(C(=S)Nc2ccc(Cl)c(C(=O)OC(C)C)c2)SCCO1 | 20.4 µM (inactive) | 32.1 µM (inactive) | 17.9 µM (inactive) | 20.1 µM (inactive) | 18.2 µM (inactive) | 17.7 µM (inactive) | 20.6 µM (inactive) | 16.6 µM (inactive) | 19.3 µM (inactive) | 20 µM (inactive) | 18.2 µM (inactive) | 14.9 µM (inactive) | 16.7 µM (inactive) | 21.9 µM (inactive) | 19.6 µM (inactive) | 21.8 µM (inactive) | 19.1 µM (inactive) | 15.5 µM (inactive) | 16.9 µM (inactive) | –
